For assay [1], the target named is D(2) dopamine receptor (Homo sapiens, UniProt P14416). Nature of the assay: Binding affinity against [3H]U-86,170-labeled dopamine receptor D2 in cloned CHO cells. In kind it is cell-based.
Assay [2] has as its target T1, D(2) dopamine receptor (Rattus norvegicus, UniProt P61169). Nature of the assay: Inhibitory concentration against [3H]raclopride-labeled dopamine receptor D2 in rat striatum. Type of assay: tissue-based.
Assay [3] concerns Mus musculus. Nature of the assay: Effective dose on hypothermia in mouse when administered subcutaneously (95% confidence levels). Type of assay: functional. The following applies: sc.
Assay [4] concerns Mus musculus. Nature of the assay: Effective dose on hypothermia in mouse when administered through peroral route. In kind it is functional. The following applies: Mus musculus, po; read-out: ED50.
In assay [5] the test system is Mus musculus. Description: Maximum decrease in temperature when compound is administered subcutaneously. In kind it is functional.
For assay [6], the system named is Mus musculus. Nature of the assay: Maximum decrease in temperature when compound is administered through peroral route. In kind it is functional.
The subject of assay [7] is Rattus norvegicus. Description: Effect on the synthesis rates of dopamine (DOPA accumulation) in the rat ventral limbic brain region at 3.4 uM/kg. In kind it is functional, Limbic system.
For assay [8], the system named is Rattus norvegicus. Nature of the assay: Effect on the synthesis rates of serotonin (5-HTP accumulation) in the rat ventral limbic brain region 3.4 umol/kg. In kind it is functional, Limbic system.
Assay [9] is filed under the species Felis catus. Nature of the assay: Percent of arterial blood pressure at sympathetic nerve activity (SND) dose value was determined. In kind it is functional.
Assay [10] deals with Felis catus. Description: Maximum decrease of arterial blood pressure at sympathetic nerve activity (SND) in anesthetized cat has been observed following 1 mg/kg dose. In kind it is functional. On the set-up: scale not given: the % may be the effect or the level left.
Assay [11] relates to Felis catus. Nature of the assay: Maximum decrease of sympathetic nerve activity (SND) in anesthetized cat. In kind it is functional. On the set-up: scale not given: the % may be the effect or the level left.
For assay [12], the system named is Felis catus. Nature of the assay: Effective dose at which the sympathetic nerve activity (SND) has been reduced to 50% of the pretreatment value in anesthetized cat. Type of assay: functional.
In assay [13] the target is T1, D(2) dopamine receptor. Description: Binding affinity for [3H]raclopride-labeled dopamine receptor D2 in rat striatum. Type of assay: tissue-based.
Assay [14] has as its system Mus musculus. Nature of the assay: Effective dose on hypothermia in mouse when administered subcutaneously. Type of assay: functional. Particulars: Mus musculus, sc; read-out: ED50.
For assay [15], the system named is Mus musculus. Nature of the assay: Time of effect in the isolation-induced aggression behavioral assay in the mouse when a dose of 0.0 micro mol/kg is administered intraperitoneally. In kind it is functional.
Assay [16] relates to Mus musculus. Nature of the assay: Time of effect in the isolation-induced aggression behavioral assay in the mouse when a dose of 1.1 micro mol/kg is administered intraperitoneally. Type of assay: functional.
In assay [17] the test system is Mus musculus. Description: Time of effect in the isolation-induced aggression behavioral assay in the mouse when a dose of 11 micro mol/kg is administered intraperitoneally (*,p<0.05). In kind it is functional.
The test system of assay [18] is Mus musculus. Description: Time of effect in the isolation-induced aggression behavioral assay in the mouse when a dose of 3.5 micro mol/kg is administered intraperitoneally (*,p<0.05). In kind it is functional.
In assay [19] the test system is Mus musculus. Description: Time of effect in the isolation-induced aggression behavioral assay in the mouse when a dose of 36 micro mol/kg is administered intraperitoneally (*,p<0.05). Type of assay: functional.
Assay [20] deals with Mus musculus. Description: Time of effect in the isolation-induced aggression behavioral assay in the mouse when a dose of 0.4 micro mol/kg is administered intraperitoneally. Type of assay: functional.
Assay [21] relates to Rattus norvegicus. Nature of the assay: Effect on the synthesis rates of dopamine (DOPA accumulation) in the rat ventral limbic brain region at 3.5 umol/kg. Type of assay: functional, Limbic system.
Assay [22] deals with Rattus norvegicus. Description: Effect on the synthesis rates of serotonin (5-HTP accumulation) in the rat ventral limbic brain region 3.5 umol/kg. Type of assay: functional, Limbic system.
Assay [23] deals with Rattus norvegicus. Nature of the assay: Inhibition of firing rates of dopaminergic neurons in the substantia nigra pars compacta by intravenous injection in rats. Type of assay: functional.
In assay [24] the test system is Rattus norvegicus. Nature of the assay: Inhibition of firing rates of serotonergic neurons in the dorsal raphe nucleus by intravenous injection in rats. Type of assay: functional. The following applies: Rattus norvegicus, Dorsal raphe nucleus, iv; read-out: ED50.
The subject of assay [25] is Mus musculus. Description: Ability to stimulate dopaminergic systems by effect on locomotor activity in reserpinized mice when a dose of 3.5 micro mol/kg is administered intraperitoneally (*,p<0.05). In kind it is functional.
In assay [26] the test system is Mus musculus. Description: Ability to stimulate dopaminergic systems by effect on locomotor activity in reserpinized mice when a dose of 35 micro mol/kg is administered intraperitoneally (*,p<0.05). Type of assay: functional.
The test system of assay [27] is Mus musculus. Nature of the assay: Ability to stimulate dopaminergic systems by effect on locomotor activity in reserpinized mice when a dose of 0.4 micro mol/kg is administered intraperitoneally. In kind it is functional.
In assay [28] the test system is Mus musculus. Description: Antagonism of apomorphine in reserpinized mice when a dose of 0.4 micro mol/kg is administered intraperitoneally. Type of assay: functional.
The test system of assay [29] is Mus musculus. Description: Antagonism of apomorphine in reserpinized mice when a dose of 3.5 micro mol/kg is administered intraperitoneally. In kind it is functional.
Assay [30] concerns Mus musculus. Nature of the assay: Antagonism of apomorphine in reserpinized mice when a dose of 35 micro mol/kg is administered intraperitoneally. In kind it is functional.
The species named for assay [31] is Mus musculus. Description: Time of effect in the face-to-face behavioral assay in the mouse […]. Type of assay: functional.
Assay [32] has as its system Mus musculus. Nature of the assay: Time of effect in the face-to-face behavioral assay in the mouse when a dose of 2.8 micro mol/kg is administered subcutaneously. Type of assay: functional.
The subject of assay [33] is Mus musculus. Description: Time of effect in the face-to-face behavioral assay in the mouse when a dose of 28 micro mol/kg is administered subcutaneously. In kind it is functional.
Assay [34] has as its system Mus musculus. Nature of the assay: Time of effect in the face-to-face behavioral assay in the mouse when a dose of 8.4 micro mol/kg is administered subcutaneously. Type of assay: functional.

Sequence of D(2) dopamine receptor (Homo sapiens, UniProt P14416) (P14416 whole entry): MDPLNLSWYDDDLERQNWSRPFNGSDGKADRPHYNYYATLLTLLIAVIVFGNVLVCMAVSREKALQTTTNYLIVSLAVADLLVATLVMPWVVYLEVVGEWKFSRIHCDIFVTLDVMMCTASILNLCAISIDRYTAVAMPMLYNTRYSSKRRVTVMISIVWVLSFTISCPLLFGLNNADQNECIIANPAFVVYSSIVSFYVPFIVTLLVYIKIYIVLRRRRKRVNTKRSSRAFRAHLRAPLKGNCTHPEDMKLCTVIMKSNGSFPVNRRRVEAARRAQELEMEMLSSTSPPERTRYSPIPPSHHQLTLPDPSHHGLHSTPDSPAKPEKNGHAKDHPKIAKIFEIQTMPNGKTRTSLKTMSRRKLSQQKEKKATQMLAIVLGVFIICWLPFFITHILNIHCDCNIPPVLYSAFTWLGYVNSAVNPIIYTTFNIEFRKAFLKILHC
T1 sequence (P61169 whole entry): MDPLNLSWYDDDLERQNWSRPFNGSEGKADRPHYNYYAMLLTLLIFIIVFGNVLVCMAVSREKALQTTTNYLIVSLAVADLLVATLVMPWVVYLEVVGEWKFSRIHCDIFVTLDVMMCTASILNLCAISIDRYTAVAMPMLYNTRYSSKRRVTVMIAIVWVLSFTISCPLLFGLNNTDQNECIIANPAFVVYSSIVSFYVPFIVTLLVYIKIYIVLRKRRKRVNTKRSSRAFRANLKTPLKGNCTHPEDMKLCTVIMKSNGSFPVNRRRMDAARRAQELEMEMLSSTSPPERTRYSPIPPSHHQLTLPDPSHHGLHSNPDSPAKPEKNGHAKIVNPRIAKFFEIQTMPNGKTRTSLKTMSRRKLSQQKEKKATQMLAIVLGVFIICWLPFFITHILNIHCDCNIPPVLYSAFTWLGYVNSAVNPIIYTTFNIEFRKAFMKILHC

As usually defined, the Ki is a dissociation constant, usually derived from enzyme kinetics or from competition with a known ligand. Usually IC50 stands for the concentration that inhibits the measured activity by half. Usually ED50 stands for the midpoint of the dose-response relation. With `CCCN1[C@@H](C)C[C@@H]2Cc3cccc(OC)c3C[C@@H]21` (racemic), at D(2) dopamine receptor [1], the affinity corresponds to a Ki of 464 nM. Also, the IC50 against D(2) dopamine receptor [2] was > 1000 nM. Moreover, the ED50 in the assay with Mus musculus [3] is 4.4 µmol/kg; in the assay on Mus musculus [4], > 101 µmol/kg; with Felis catus [12], 1.18 µmol/kg. The figures for the Max temperature decrease in the assay on Mus musculus [5] and in the assay on Mus musculus [6] were 7.8 and 3.1, respectively. For the same compound, the Control was 32% with Rattus norvegicus [7], -44% in the assay with Rattus norvegicus [8], 63% with Felis catus [10] and 25% in the assay with Felis catus [11]. This compound also displayed a BP in the assay filed under Felis catus [9] of 85%.

For the compound `CCCN1CC[C@@H]2Cc3c(cccc3OC)C[C@H]21` (racemic), the Ki at D(2) dopamine receptor [1] is 100 nM; on D(2) dopamine receptor [13], 877 nM. Besides, the 50% effective dose (ED50) with Mus musculus [14] was 0.4 µmol/kg; in the assay on Mus musculus [4] it was > 355 µmol/kg; in the assay with Rattus norvegicus [23], 0.66 µmol/kg; with Rattus norvegicus [24] it was 0.07 µmol/kg. Also, the Time in the assay on Mus musculus [15] was 9 s; in the assay on Mus musculus [16] it was 134 s; in the assay with Mus musculus [17], 268 s; in the assay on Mus musculus [18] it was 384 s; in the assay on Mus musculus [19] it was 450 s; with Mus musculus [20] it was 6 s. The Max temperature decrease came out at 6.7 with Mus musculus [5] and 1.4 in the assay with Mus musculus [6]. Further, the Control in the assay on Rattus norvegicus [21] is -39%; in the assay with Rattus norvegicus [22] it was -29%. Further, the Locomotor activity in the assay with Mus musculus [25] stood at 1168; with Mus musculus [26] it was 561; with Mus musculus [27], 251; in the assay with Mus musculus [28] it was 148; in the assay with Mus musculus [29] it was 129; in the assay with Mus musculus [30], 61.

As to `CN(C)CCCN1c2ccccc2Sc2ccc(Cl)cc21.Cl` [CHLORPROMAZINE HYDROCHLORIDE], the Time in the assay listed under Mus musculus [31] amounted to 3.6 s; with Mus musculus [32] it was 5.8 s; with Mus musculus [33], 0 s; in the assay with Mus musculus [34], 1.3 s.

The values above are taken from ChEMBL document CHEMBL1126639, “Centrally acting serotonergic and dopaminergic agents. 2. Synthesis and structure-activity relationships of 2,3,3a,4,9,9a-hexahydro-1H-benz[f]indole derivatives” (J Med Chem, 1993).
